Measured values as given in patent US11739074B2, “Ras inhibitors” (Revolution Medicines, Inc., priority 2019, dated 2023).
Read-outs that look alike come from different tables or passages of the source.

How the values were obtained:
[1] = ester bond, EDCI/HOBt/DIPEA, 16.0 h
[2] = from CCn1c(-c2cc(N3CCN(C(=O)OCc4ccccc4)CC3)cnc2[C@H](C)OC)c(CC(C)(C)CO)c2cc(-c3csc(C[C@H](NC(=O)OC(C)(C)C)C(=O)N4CCC[C@@H](C(=O)O)N4)n3)ccc21; ester bond; 18-membered ring; EDCI/HOBt/DIEA; MeCN; 10.3 mM; 25.0 °C
[3] = molecular target: KRAS G12D (Homo sapiens, UniProt P01116+P62937, G12D); experiment: Ras-Raf disruption/FRET/MOA assay, KRAS G12D; assay type: biochemical; settings: disruption of BRAF RBD binding, with Cyclophilin A; read-out: KRAS G12D FRET IC50
Chain of KRAS G12D (P01116 1-169 isoform P01116-2 G12D limits assumed): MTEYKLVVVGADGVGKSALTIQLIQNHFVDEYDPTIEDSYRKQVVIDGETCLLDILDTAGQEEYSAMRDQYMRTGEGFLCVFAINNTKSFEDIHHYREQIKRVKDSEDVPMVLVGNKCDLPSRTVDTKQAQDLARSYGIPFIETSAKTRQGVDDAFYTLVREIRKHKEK
Chain of KRAS G12D (P62937 whole entry): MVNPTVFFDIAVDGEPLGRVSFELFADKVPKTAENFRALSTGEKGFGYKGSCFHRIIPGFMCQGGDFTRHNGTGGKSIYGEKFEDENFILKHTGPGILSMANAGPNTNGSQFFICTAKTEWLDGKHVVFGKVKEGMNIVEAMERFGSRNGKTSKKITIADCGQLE
Method in brief: (§1)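 TR-FRET read-out of the K-Ras:RAF complex: decreased ratio relative to DMSO indicates compound-driven cyclophilin A ternary complex formation. Compound (top 30 µM, 3-fold, 10 points), 25 µM cyclophilin A, 12.5 nM GMPPNP-loaded His6-K-Ras and 50 nM GST-BRAF RBD were incubated 3 h at 25 °C (pH 7.3), followed by Eu/APC antibodies for 1.5 h.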

[4] = system: NCI-H358 (K-Ras G12C); experiment: CellTiter-Glo cell viability assay, H358; assay type: cell-based; settings: Homo sapiens, NCI-H358, 120 h, NCI-H358, K-Ras G12C, 5-day treatment; read-out: H358 Cell Viability IC50
Method in brief: (§2)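 Cells already in plates received compound by direct dispensing. After incubation to day 5, plates sat at room temperature roughly 30 minutes, then ATP-based luminescence was measured and values derived from a four-parameter fit of DMSO-normalized data.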

[5] = molecular target: T1, NRAS WT (Homo sapiens, UniProt P01111+P62937); experiment: Ras-Raf disruption/FRET/MOA assay, NRAS WT; assay type: biochemical; settings: NRAS WT; read-out: NRAS WT FRET data IC50
T1 construct: His6
T1 sequence (P01111 whole entry): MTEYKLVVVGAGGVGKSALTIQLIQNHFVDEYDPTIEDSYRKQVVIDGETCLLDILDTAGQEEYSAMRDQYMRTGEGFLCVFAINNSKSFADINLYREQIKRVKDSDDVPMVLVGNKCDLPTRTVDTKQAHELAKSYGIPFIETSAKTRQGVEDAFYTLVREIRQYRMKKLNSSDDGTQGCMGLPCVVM
T1 sequence (P62937 whole entry): as the sequence (P62937 whole entry) above
Excerpt: (§3) Disruption of B-Raf Ras-Binding Domain (BRAF^RBD) Interaction with K-Ras by Compounds of the Invention (Also Called a FRET Assay or an MOA Assay)
(§4) Note—The following protocol describes a procedure for monitoring disruption of K-Ras G12C (GMP-PNP) binding to BRAF^RBD by a compound of the invention. This protocol may also be executed substituting other Ras proteins or nucleotides, such as K-Ras G12D and K-Ras G13D.
(§5) The purpose of this biochemical assay was to measure the ability of test compounds to facilitate ternary complex formation between a nucleotide-loaded K-Ras isoform and Cyclophilin A; the resulting ternary complex disrupts binding to a BRAF^RBD construct, inhibiting K-Ras signaling through a RAF effector.
(§6) In assay buffer containing 25 mM HEPES pH 7.3, 0.002% Tween20, 0.1% BSA, 100 mM NaCl and 5 mM MgCl2, tagless Cyclophilin A, His6-K-Ras-GMPPNP, and GST-BRAF^RBD were combined in a 384-well assay plate at final concentrations of 25 μM, 12.5 nM, and 50 nM, respectively. Compound was present in plate wells as a 10-point 3-fold dilution series starting at a final concentration of 30 μM. After incubation at 25° C. for 3 hours, a mixture of anti-His Eu-W1024 and anti-GST allophycocyanin was then added to assay sample wells at final concentrations of 10 nM and 50 nM, respectively, and the reaction incubated for an additional 1.5 hours. […] Compounds that facilitate disruption of a K-Ras:RAF complex were identified as those eliciting a decrease in the TR-FRET ratio relative to DMSO control wells.

[6] = molecular target: KRAS G13D (Homo sapiens, UniProt P01116+P62937, G13D); experiment: Ras-Raf disruption/FRET/MOA assay, KRAS G13D; assay type: biochemical; settings: disruption of BRAF RBD binding, with Cyclophilin A; read-out: KRAS G13D FRET IC50
Chain of KRAS G13D (P01116 1-169 isoform P01116-2 G13D limits assumed): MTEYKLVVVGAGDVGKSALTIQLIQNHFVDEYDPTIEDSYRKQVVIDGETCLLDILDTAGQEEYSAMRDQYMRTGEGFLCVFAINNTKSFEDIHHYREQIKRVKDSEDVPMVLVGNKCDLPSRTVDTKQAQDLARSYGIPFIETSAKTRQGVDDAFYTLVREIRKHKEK
Chain of KRAS G13D (P62937 whole entry): as the sequence (P62937 whole entry) above
Method in brief: as §1

[7] = molecular target: KRAS G12C (Homo sapiens, UniProt P01116+P62937, G12C); experiment: Ras-Raf disruption/FRET/MOA assay, KRAS G12C; assay type: biochemical; settings: disruption of BRAF RBD binding, with Cyclophilin A; read-out: KRAS G12C FRET IC50
Chain of KRAS G12C (P01116 1-169 isoform P01116-2 G12C limits assumed): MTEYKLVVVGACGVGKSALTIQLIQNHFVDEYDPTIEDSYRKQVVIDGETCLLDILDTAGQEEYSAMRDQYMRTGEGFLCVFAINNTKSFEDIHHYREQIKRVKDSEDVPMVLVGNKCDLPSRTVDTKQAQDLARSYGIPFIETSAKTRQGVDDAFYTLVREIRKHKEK
Chain of KRAS G12C (P62937 whole entry): as the sequence (P62937 whole entry) above
Method in brief: as §1

[8] = molecular target: KRAS WT (Homo sapiens, UniProt P01116+P62937); experiment: Ras-Raf disruption/FRET/MOA assay, KRAS WT; assay type: biochemical; settings: disruption of BRAF RBD binding, with Cyclophilin A; read-out: KRAS WT FRET IC50
Chain of KRAS WT (P01116 1-169 isoform P01116-2 limits assumed): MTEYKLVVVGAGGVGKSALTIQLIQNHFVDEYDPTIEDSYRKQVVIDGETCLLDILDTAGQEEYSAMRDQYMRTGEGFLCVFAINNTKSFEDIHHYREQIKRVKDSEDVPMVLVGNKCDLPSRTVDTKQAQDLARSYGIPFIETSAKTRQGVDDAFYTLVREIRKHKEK
Chain of KRAS WT (P62937 whole entry): as the sequence (P62937 whole entry) above
Method in brief: as §1

[9] = molecular target: T2, NRAS Q61R (Homo sapiens, UniProt P01111+P62937, Q61R); experiment: Ras-Raf disruption/FRET/MOA assay, NRAS Q61R; assay type: biochemical; settings: NRAS Q61R; read-out: NRAS Q61R FRET data IC50
T2 construct: His6
T2 sequence (P01111 whole entry Q61R): as the sequence (P01111 whole entry) above, with Q61R counted along it
T2 sequence (P62937 whole entry): as the sequence (P62937 whole entry) above
Excerpt: as §3, §4, §5, §6

[10] = molecular target: KRAS G13C (Homo sapiens, UniProt P01116+P62937, G13C); experiment: Ras-Raf disruption/FRET/MOA assay, KRAS G13C; assay type: biochemical; settings: disruption of BRAF RBD binding, with Cyclophilin A; read-out: KRAS G13C FRET IC50
Chain of KRAS G13C (P01116 1-169 isoform P01116-2 G13C limits assumed): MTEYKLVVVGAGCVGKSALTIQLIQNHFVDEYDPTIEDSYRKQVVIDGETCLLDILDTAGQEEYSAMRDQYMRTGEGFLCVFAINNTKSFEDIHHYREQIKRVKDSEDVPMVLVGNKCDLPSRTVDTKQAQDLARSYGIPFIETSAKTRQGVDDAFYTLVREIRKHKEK
Chain of KRAS G13C (P62937 whole entry): as the sequence (P62937 whole entry) above
Method in brief: as §1

[11] = molecular target: T3, NRAS G12C (Homo sapiens, UniProt P01111+P62937, G12C); experiment: Ras-Raf disruption/FRET/MOA assay, NRAS G12C; assay type: biochemical; settings: NRAS G12C; read-out: NRAS G12C FRET data IC50
T3 construct: His6
T3 sequence (P01111 whole entry G12C): as the sequence (P01111 whole entry) above, with G12C counted along it
T3 sequence (P62937 whole entry): as the sequence (P62937 whole entry) above
Method in brief: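 Disruption of Ras:RAF binding was read as a drop in TR-FRET ratio versus DMSO controls. The buffer was 25 mM HEPES pH 7.3, 0.002% Tween20, 0.1% BSA, 100 mM NaCl and 5 mM MgCl2. Compounds were tested as a 10-point 3-fold dilution series from 30 μM. Detection used 10 nM anti-His Eu-W1024 and 50 nM anti-GST allophycocyanin.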

[12] = molecular target: KRAS G12V (Homo sapiens, UniProt P01116+P62937, G12V); experiment: Ras-Raf disruption/FRET/MOA assay, KRAS G12V; assay type: biochemical; settings: disruption of BRAF RBD binding, with Cyclophilin A; read-out: KRAS G12V FRET IC50
Chain of KRAS G12V (P01116 1-169 isoform P01116-2 G12V limits assumed): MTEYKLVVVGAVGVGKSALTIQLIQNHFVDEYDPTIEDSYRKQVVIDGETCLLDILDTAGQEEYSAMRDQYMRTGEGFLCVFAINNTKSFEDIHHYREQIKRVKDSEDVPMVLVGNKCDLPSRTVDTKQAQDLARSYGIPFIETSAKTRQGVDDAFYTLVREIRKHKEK
Chain of KRAS G12V (P62937 whole entry): as the sequence (P62937 whole entry) above
Method in brief: as §1

[13] = molecular target: KRAS G12S (Homo sapiens, UniProt P01116+P62937, G12S); experiment: Ras-Raf disruption/FRET/MOA assay, KRAS G12S; assay type: biochemical; settings: disruption of BRAF RBD binding, with Cyclophilin A; read-out: KRAS G12S FRET IC50
Chain of KRAS G12S (P01116 1-169 isoform P01116-2 G12S limits assumed): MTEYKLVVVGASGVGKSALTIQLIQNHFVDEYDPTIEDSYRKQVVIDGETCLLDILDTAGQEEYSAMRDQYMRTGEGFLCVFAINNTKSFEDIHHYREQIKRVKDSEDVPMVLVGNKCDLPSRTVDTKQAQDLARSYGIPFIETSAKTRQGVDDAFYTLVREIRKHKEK
Chain of KRAS G12S (P62937 whole entry): as the sequence (P62937 whole entry) above
Method in brief: as §1

[14] = system: AsPC-1 (K-Ras G12D); experiment: CellTiter-Glo cell viability assay, AsPC-1; assay type: cell-based; settings: Homo sapiens, ASPC1, 120 h, AsPC-1, K-Ras G12D, 5-day treatment; read-out: AsPC-1 Cell Viability IC50
Method in brief: as §2

[15] = molecular target: T4, NRAS Q61K (Homo sapiens, UniProt P01111+P62937, Q61K); experiment: Ras-Raf disruption/FRET/MOA assay, NRAS Q61K; assay type: biochemical; settings: NRAS Q61K; read-out: NRAS Q61K FRET data IC50
T4 construct: His6
T4 sequence (P01111 whole entry Q61K): as the sequence (P01111 whole entry) above, with Q61K counted along it
T4 sequence (P62937 whole entry): as the sequence (P62937 whole entry) above
Excerpt: as §3, §4, §5, §6

[16] = system: AsPC-1 (K-Ras G12D); experiment: Potency assay: pERK in AsPC-1 cells; assay type: cell-based; settings: Homo sapiens, ASPC1; AsPC-1 cells, K-Ras G12D; read-out: pERK EC50 (AsPC-1 KRAS G12D)
[17] = molecular target: KRAS Q61H (Homo sapiens, UniProt P01116+P62937, Q61H); experiment: Ras-Raf disruption/FRET/MOA assay, KRAS Q61H; assay type: biochemical; settings: KRAS Q61H; read-out: KRAS Q61H FRET data IC50
Chain of KRAS Q61H (P01116 1-169 isoform P01116-2 Q61H limits assumed): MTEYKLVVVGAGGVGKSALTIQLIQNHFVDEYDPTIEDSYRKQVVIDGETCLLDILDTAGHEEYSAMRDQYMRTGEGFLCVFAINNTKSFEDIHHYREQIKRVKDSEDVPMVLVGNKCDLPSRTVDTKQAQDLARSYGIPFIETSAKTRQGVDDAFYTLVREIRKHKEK
Chain of KRAS Q61H (P62937 whole entry): as the sequence (P62937 whole entry) above
Excerpt: as §3, §4, §5, §6

SMILES	ring closure, yield of all isomers ([1]; from CC(C)[Si](Oc1cc(C[C@H](NC(=O)OC(C)(C)C)C(=O)N2CCC[C@@H](C(=O)O)N2)cc(-c2ccc3[nH]c(I)c(CC(C)(C)CO)c3c2)c1)(C(C)C)C(C)C, DCM, 22.8 mM, 25.0 °C) [%]	ring closure, yield of all isomers ([1]; from CC(C)(CO)Cc1c(I)[nH]c2ccc(-c3cccc(C[C@H](NC(=O)OC(C)(C)C)C(=O)N4CCC[C@@H](C(=O)O)N4)c3)cc12, DCM, 12.8 mM, 0.0 °C) [%]	ring closure, isolated yield [2] [%]	ring closure, yield of all isomers ([1]; from CCn1c(-c2cc(N3CCN(C(=O)OCc4ccccc4)CC3)cnc2[C@H](C)OC)c(CC(C)(C)CO)c2cc(-c3csc(C[C@H](NC(=O)OC(C)(C)C)C(=O)N4CCC[C@@H](C(=O)O)N4)n3)ccc21, MeCN, 10.34 mM, 25.0 °C) [%]	ring closure, yield of all isomers ([1]; from CCn1c(-c2cccnc2[C@H](C)OC)c(CC(C)(C)CO)c2cc(-c3csc(C[C@H](NC(=O)OC(C)(C)C)C(=O)N4CCC[C@@H](C(=O)O)N4)n3)ccc21, DCM, 12.65 mM, 25.0 °C) [%]	IC50 [3] [nM]	IC50 [4] [nM]	IC50 [5] [nM]	IC50 [6] [nM]	IC50 [7] [nM]	IC50 [8] [nM]	IC50 [9] [nM]	IC50 [10] [nM]	IC50 [11] [nM]	IC50 [12] [nM]	IC50 [13] [nM]	IC50 [14] [nM]	IC50 [15] [nM]	EC50 [16] [nM]	IC50 [17] [nM]
CC(C)[Si](Oc1cc2cc(c1)-c1ccc3[nH]c(I)c(c3c1)CC(C)(C)COC(=O)[C@@H]1CCCN(N1)C(=O)[C@@H](NC(=O)OC(C)(C)C)C2)(C(C)C)C(C)C	50																			
CC1(C)COC(=O)[C@@H]2CCCN(N2)C(=O)[C@@H](NC(=O)OC(C)(C)C)Cc2cccc(c2)-c2ccc3[nH]c(I)c(c3c2)C1		79.8																		
CCn1c(-c2cc(N3CCN(C(=O)OCc4ccccc4)CC3)cnc2[C@H](C)OC)c2c3cc(ccc31)-c1csc(n1)C[C@H](NC(=O)OC(C)(C)C)C(=O)N1CCC[C@H](N1)C(=O)OCC(C)(C)C2			54.9	54.9																
CCn1c(-c2cccnc2[C@H](C)OC)c2c3cc(ccc31)-c1csc(n1)C[C@H](NC(=O)OC(C)(C)C)C(=O)N1CCC[C@H](N1)C(=O)OCC(C)(C)C2					81.1															
CCn1c(-c2cccnc2[C@H](C)OC)c2c3cc(ccc31)-c1csc(n1)C[C@H](NC(=O)[C@H](C(C)C)N(C)C(=O)N1C3CCC1CN(C(=O)[C@@H]1CN1)C3)C(=O)N1CCC[C@H](N1)C(=O)OCC(C)(C)C2 [Compound 304]						100 to 1000	100 to 1000	100 to 1000	1000 to 10000	100 to 1000	100 to 1000	100 to 1000	1000 to 10000	100 to 1000	100 to 1000	100 to 1000	1000 to 10000	100 to 1000	< 5000	10 to 100
CCn1c(-c2cccnc2[C@H](C)OC)c2c3cc(ccc31)-c1cc(O)cc(c1)C[C@H](NC(=O)[C@H](C(C)C)N1CCCC3(CN(C(=O)[C@H]4CN4)C3)C1=O)C(=O)N1CCC[C@H](N1)C(=O)OCC(C)(C)C2 [Compound 307]						100 to 1000	< 10	10 to 100	10 to 100	< 10	10 to 100	100 to 1000	10 to 100	< 10	10 to 100	10 to 100	100 to 1000	100 to 1000	< 5000	10 to 100
CCn1c(-c2cccnc2[C@H](C)OC)c2c3cc(ccc31)-c1csc(n1)C[C@H](NC(=O)[C@H](C1CCCC1)N1CC[C@]3(CCN(C(=O)[C@H]4CN4)C3)C1=O)C(=O)N1CCC[C@H](N1)C(=O)OCC(C)(C)C2 [Compound 319]						1000 to 10000	< 10	1000 to 10000	1000 to 10000	10 to 100	1000 to 10000	1000 to 10000	100 to 1000	10 to 100	1000 to 10000	1000 to 10000	100 to 1000	100 to 1000	< 5000	100 to 1000
CCn1c(-c2cccnc2[C@H](C)OC)c2c3cc(ccc31)-c1cc(CF)cc(c1)C[C@H](NC(=O)[C@H](C1CCCC1)N1CC[C@]3(CCN(C(=O)[C@@H]4N[C@@H]4C4CC4)C3)C1=O)C(=O)N1CCC[C@H](N1)C(=O)OCC(C)(C)C2 [Compound 321]						100 to 1000	100 to 1000	100 to 1000	1000 to 10000	100 to 1000	100 to 1000	1000 to 10000	100 to 1000	100 to 1000	100 to 1000	100 to 1000	10 to 100	1000 to 10000	< 5000	100 to 1000
CCn1c(-c2cc(N3CCN(C)CC3)cnc2[C@H](C)OC)c2c3cc(ccc31)-c1csc(n1)C[C@H](NC(=O)[C@H](C1CCCC1)N1CC[C@]3(CCN(C(=O)[C@@H]4N[C@@H]4C4CC4)C3)C1=O)C(=O)N1CCC[C@H](N1)C(=O)OCC(C)(C)C2 [Compound 324]						100 to 1000	< 10	100 to 1000	1000 to 10000	100 to 1000	100 to 1000	100 to 1000	100 to 1000	100 to 1000	100 to 1000	100 to 1000	10 to 100	100 to 1000	< 5000	100 to 1000
